Counter-ions that a name gives are not always drawn.
Key:
[1] = molecular target: T1, BACE-1 enzyme (Homo sapiens, UniProt P56817); assay: BACE Fluorescence Resonance Energy Transfer (FRET) Assay; type: biochemical; conditions: pH 4-4.5, 30 min pre-incubation, about 1.5 hours reaction
T1 construct: purchased R & D Systems 931AS
Outline: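 BACE-1 enzyme pre-incubated 30 min with compound in 7.5% DMSO in 50 mM sodium acetate pH 4-4.5, 0.01% CHAPS, 0.0125% Triton X-100, 0.006% EDTA. Rhodamine/quencher peptide substrate added; ~1.5 h at room temperature, fluorescence read at 540/585 nm. IC50 or percent inhibition at one concentration.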

[2] = system: Aβ1-40 secreted from HEK293 cells stably expressing wildtype human APP695 protein (HEK-APPwt cells); assay: Aβ Cell Based Assay (Aβ1-40 secretion, ELISA); conditions: Homo sapiens, HEK293, 6 h, 6 hours incubation, reduction of Aβ1-40 secretion
Method: Aβ Cell Based Assay Procedure
In the following assay, the proteolytic activity of BACE in cells exposed to varying concentrations of a compound of interest is measured by observing the amount of Aβ1-40 secreted from HEK293 cells (Human Embryonic Kidney epithelial cell line) stably expressing wildtype human APP695 protein (HEK-APPwt cells).
HEK-APPwt cells were grown in high glucose DMEM (Dulbecco's Modified Eagles Medium SIGMA Cat.# D5796) supplemented with 25 mM HEPES (4-(2-hydroxyethyl)-1-piperazineethanesulfonic acid) (pH 7.4) (Invitrogen Cat.# 15630-114), 0.1 mM NEAA (Non-essential Amino Acids) (BioWhittaker Cat. #13-114E), 10% fetal bovine serum (SIGMA Cat. #F4135) and 250 μg/mL hygromycin (Invitrogen Cat. #10687-010) in T-225 flasks at 37° C. with 5% CO2 and humidity control.
Test compounds were initially prepared in DMSO and diluted with DMEM media containing 2% FBS (Fetal bovine serum). Ten standard compound solutions were prepared having a range of concentrations. The standard compound solutions were used to determine the EC50 of the test compound. The range of concentrations chosen may depend on the compound's predicted potency.
To prepare the cells for the assay, a flask containing HEK-APPwt cells were trypsinized briefly (1 mL trypsin), and once the cells detached, 4 mL of 10% FBS-DMEM was added to the flask. The detached cells were centrifuged at 900 rpm for 5 min to form a pellet.
The HEK-APPwt cell pellet was re-suspended with 10 mL DMEM media containing 2% FBS. 80 μL of the cell suspension was added to each well of a 96-well cell culture plate to give 100×10^4cells/ml. 10 μL of a standard compound solution was added to each well of the 96-well cell culture plate followed by 10 μL of Alamar blue solution. The cells were incubated at 37° C. in a 5% CO2 incubator for 6 hours.
At the end of the incubation, the plates were removed from incubator, and the supernatant was collected. A≈1-40 concentration in the medium was measured by using a commercial Aβ1-X ELISA kit (IBL, Japan Cat. #27729). Briefly, the ELISA plates were coated with an anti-human AO (N)(82E1) mouse IgG monoclonal antibody. A horseradish peroxidase conjugated anti-human Aβ11-28 mouse IgG monoclonal antibody was used for detection. The cell culture supernatant was diluted with EIA buffer +protease inhibitors (kit buffer containing protease inhibitors (1 mL PI/30 mL buffer)). A 100 μL aliquot of the diluted supernatant was added to each well of the ELISA plate and incubated for 6 hrs at 4° C. The ELISA plate was washed 8 times with phosphate buffered saline (PBS) containing 0.05% Tween 20.
A 100 μL of detection antibody was then added and incubated for 1 hour at 4° C. The plate was washed 8 times with PBS buffer containing 0.05% Tween 20 followed by addition of 100 μL of the chromogen tetramethylbenzidine (TMB). The plate was incubated in the dark at room temperature for about 30 min and a stop solution (1N H2SO4) was added.
The intensity of the color developed was measured at 450 nm. The optical density at 450 nm (OD450) is proportional to the concentration of human Aβ1-40 secreted by the cell. As a reference, N-[N-(3,5-difluorophenacetyl-L-alanyl)]-S-phenylglycine t-butyl ester (DAPT, a γ-secretase inhibitor) was used to indicate 100% inhibition of BACE activity. Thus, the assay measures the ability of a compound of interest to reduce Aβ1-40 secretion. For select compounds, compound potency is reported in Table 3 as the EC50 by calculating the percent inhibition at all concentration levels and the data were fit with non-linear curve fitting algorithm using GraphPad Prism.

T1 sequence (P56817 46-457 limits assumed): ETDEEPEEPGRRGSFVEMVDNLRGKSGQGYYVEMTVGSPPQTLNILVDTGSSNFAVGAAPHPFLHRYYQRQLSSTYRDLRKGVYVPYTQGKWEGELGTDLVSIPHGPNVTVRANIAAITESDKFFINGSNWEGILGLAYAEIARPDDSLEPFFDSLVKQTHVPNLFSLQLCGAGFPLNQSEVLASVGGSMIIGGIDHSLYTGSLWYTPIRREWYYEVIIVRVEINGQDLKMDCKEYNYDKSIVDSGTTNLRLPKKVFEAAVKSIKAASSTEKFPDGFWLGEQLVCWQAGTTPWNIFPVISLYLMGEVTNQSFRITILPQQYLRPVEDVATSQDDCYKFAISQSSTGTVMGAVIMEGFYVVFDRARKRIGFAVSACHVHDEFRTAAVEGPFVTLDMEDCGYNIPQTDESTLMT

Row | IC50 [1] | Structure (SMILES) | EC50 [2]
1 | 0.32 µM | Cc1cccc2nc(C(=O)Nc3nc4cc(-c5cccc(C(F)(F)F)c5)ccc4[nH]3)cn12 [Example 1, 5-Methyl-imidazo[1,2-a]pyridine-2-carboxylic acid[5-(3-trifluoromethyl-phenyl)-1H-benzoimidazol-2-yl]-amide] | 0.53 µM
2 | 0.98 µM | O=C(Nc1nc2cc(-c3cccc(C(F)(F)F)c3)ccc2[nH]1)c1cn2c(OC3CCNCC3)cccc2n1 [Example 2, 5-(Piperidin-4-yloxy)-imidazo[1,2-a]pyridine-2-carboxylic acid[5-(3-trifluoromethyl-phenyl)-1H-benzoimidazol-2-yl]-amide trihydrochloride] | 6.4 µM
3 | 1.15 µM | CN1CCC(Oc2cccc3nc(C(=O)Nc4nc5cc(-c6cccc(C(F)(F)F)c6)ccc5[nH]4)cn23)CC1 [Example 3, 5-(1-Methyl-piperidin-4-yloxy)-imidazo[1,2-a]pyridine-2-carboxylic acid[5-(3-trifluoromethyl-phenyl)-1H-benzoimidazol-2-yl]-amide] | 4.02 µM
4 | 0.3 µM | CN1CCN(Cc2cccc3nc(C(=O)Nc4nc5cc(-c6cccc(C(F)(F)F)c6)ccc5[nH]4)cn23)CC1 [Example 10, 5-(4-Methyl-piperazin-1-ylmethyl)-imidazo[1,2-a]pyridine-2-carboxylic acid [5-(3-trifluoromethyl-phenyl)-1H-benzoimidazol-2-yl]-amide] | 2.53 µM
5 | 0.55 µM | Cc1cccc2nc(C(=O)Nc3nc4ccc(-c5cccc(C(F)(F)F)c5)cc4n3C)cn12 [Example 11, 5-Methyl-imidazo[1,2-a]pyridine-2-carboxylic acid [1-methyl-6-(3-trifluoromethyl-phenyl)-1H-benzoimidazol-2-yl]-amide] | 8.83 µM
6 | 0.2 µM | Cc1cccc2nc(C(=O)Nc3nc4cc(OCc5ccccc5)ccc4[nH]3)cn12 [Example 12, 5-Methyl-imidazo[1,2-a]pyridine-2-carboxylic acid (5-benzyloxy-1H-benzoimidazol-2-yl)-amide] | 2.01 µM
7 | 0.16 µM | Cc1cccc2nc(C(=O)Nc3nc4cc(OCc5ccc(C(F)(F)F)cc5)ccc4[nH]3)cn12 [Example 18, 5-Methyl-imidazo[1,2-a]pyridine-2-carboxylic acid [5-(4-trifluoromethyl-benzyloxy)-1H-benzoimidazol-2-yl]-amide] | 0.42 µM
8 | 0.27 µM | Cc1cccc2nc(C(=O)Nc3nc4cc(-c5ccc(C(F)(F)F)cc5)ccc4[nH]3)cn12 [Example 23, 5-Methyl-imidazo[1,2-a]pyridine-2-carboxylic acid [5-(4-trifluoromethyl-phenyl)-1H-benzoimidazol-2-yl]-amide] | 0.66 µM
9 | 0.42 µM | Cc1cccc2nc(C(=O)Nc3nc4cc(OCc5cccc(C(F)(F)F)c5)ccc4[nH]3)cn12 [Example 26, 5-Methyl-imidazo[1,2-a]pyridine-2-carboxylic acid [5-(3-trifluoromethyl-benzyloxy)-1H-benzoimidazol-2-yl]-amide] | 1.21 µM
10 | 0.5 µM | Cc1cccc2nc(C(=O)Nc3nc4cc(-c5cccc(Cl)c5)ccc4[nH]3)cn12 [Example 27, 5-Methyl-imidazo[1,2-a]pyridine-2-carboxylic acid [5-(3-chloro-phenyl)-1H-benzoimidazol-2-yl]-amide] | 1.45 µM
11 | 0.32 µM | Cc1cccn2cc(C(=O)Nc3nc4cc(-c5cccc(OC(F)(F)F)c5)ccc4[nH]3)nc12 [Example 28, 8-Methyl-imidazo[1,2-a]pyridine-2-carboxylic acid [5-(3-trifluoromethoxy-phenyl)-1H-benzoimidazol-2-yl]-amide] | 2.13 µM
12 | 0.52 µM | Cc1cccn2cc(C(=O)Nc3nc4cc(-c5cccc(C(F)(F)F)c5)ccc4[nH]3)nc12 [Example 32, 8-Methyl-imidazo[1,2-a]pyridine-2-carboxylic acid [5-(3-trifluoromethyl-phenyl)-1H-benzoimidazol-2-yl]-amide] | 1.36 µM
13 | 0.82 µM | CCOc1cccc(-c2ccc3[nH]c(NC(=O)c4cn5c(C)cccc5n4)nc3c2)c1 [Example 35, 5-Methyl-imidazo[1,2-a]pyridine-2-carboxylic acid [5-(3-ethoxy-phenyl)-1H-benzoimidazol-2-yl]-amide] | 2.3 µM
14 | 0.38 µM | Cc1cccc2nc(C(=O)Nc3nc4cc(OCc5ccccc5C(F)(F)F)ccc4[nH]3)cn12 [Example 42, 5-Methyl-imidazo[1,2-a]pyridine-2-carboxylic acid [5-(2-trifluoromethyl-benzyloxy)-1H-benzoimidazol-2-yl]-amide] | 3.45 µM
15 | 0.3 µM | Cc1cccc2nc(C(=O)Nc3nc4cc(OCc5cc(F)cc(C(F)(F)F)c5)ccc4[nH]3)cn12 [Example 43, 5-Methyl-imidazo[1,2-a]pyridine-2-carboxylic acid [5-(3-fluoro-5-trifluoromethyl-benzyloxy)-1H-benzoimidazol-2-yl]-amide] | 0.58 µM
16 | 0.26 µM | Cc1cccc2nc(C(=O)Nc3nc4cc(-c5cccc(OC(F)(F)F)c5)ccc4[nH]3)cn12 [Example 46, 5-Methyl-imidazo[1,2-a]pyridine-2-carboxylic acid [5-(3-trifluoromethoxy-phenyl)-1H-benzoimidazol-2-yl]-amide] | 0.63 µM
17 | 0.42 µM | Cc1cccc2nc(C(=O)Nc3nc4cc(-c5ccc(Cl)c(C(F)(F)F)c5)ccc4[nH]3)cn12 [Example 47, 5-Methyl-imidazo[1,2-a]pyridine-2-carboxylic acid [5-(4-chloro-3-trifluoromethyl-phenyl)-1H-benzoimidazol-2-yl]-amide] | 0.08 µM
18 | 0.49 µM | Cc1cccc2nc(C(=O)Nc3nc4cc(-c5ccc(F)c(C(F)(F)F)c5)ccc4[nH]3)cn12 [Example 48, 5-Methyl-imidazo[1,2-a]pyridine-2-carboxylic acid [5-(4-fluoro-3-trifluoromethyl-phenyl)-1H-benzoimidazol-2-yl]-amide] | 0.18 µM
19 | 0.17 µM | O=C(Nc1nc2cc(OCc3ccc(C(F)(F)F)cc3)ccc2[nH]1)c1cn2c(C(F)(F)F)cccc2n1 [Example 49, 5-Trifluoromethyl-imidazo[1,2-a]pyridine-2-carboxylic acid [5-(4-trifluoromethyl-benzyloxy)-1H-benzoimidazol-2-yl]-amide] | 8.76 µM
20 | 0.32 µM | Cc1cccn2cc(C(=O)Nc3nc4cc(-c5ccc(C(F)(F)F)cc5)ccc4[nH]3)nc12 [Example 50, 8-Methyl-imidazo[1,2-a]pyridine-2-carboxylic acid [5-(4-trifluoromethyl-phenyl)-1H-benzoimidazol-2-yl]-amide] | 4.41 µM
21 | 0.96 µM | Cc1cccn2cc(C(=O)Nc3nc4cc(-c5cccc(Cl)c5)ccc4[nH]3)nc12 [Example 51, 8-Methyl-imidazo[1,2-a]pyridine-2-carboxylic acid [5-(3-chloro-phenyl)-1H-benzoimidazol-2-yl]-amide] | 1.84 µM
22 | 5.28 µM | O=C(Nc1nc2cc(OCc3ccc(C(F)(F)F)cc3)ccc2[nH]1)c1cn2cc(-c3ccccc3)ccc2n1 [Example 52, 6-Phenyl-imidazo[1,2-a]pyridine-2-carboxylic acid [5-(4-trifluoromethyl-benzyloxy)-1H-benzoimidazol-2-yl]-amide] | 0.51 µM
